# In patent US20230096663A1, “FARNESOID X RECEPTOR MODULATING COMPOUNDS AND METHODS OF USING THE SAME” (Inorbit Therapeutics AB, priority 2020, published 2023):
# How the values were obtained:
# [1] = Metabolism in human microsomes; format: in vitro ADME; conditions: 37° C.
# Protocol: Microsomal mixes (247.5 μL) of human microsomes (1250 μL, 4 mg/ml), potassium phosphate buffer (1250 μL), alamethecin (12.5 μL, 5 mg/ml) and cofactors Nicotinamide Adenine Dinucleotide Phosphate NADPH (1250 μL, 4 mM)/uridine 5′-diphospho-glucuronic acid UDPGA (1250 μL, 4 mM) or UDPGA only were loaded onto a shaker for 10 minutes. The test compound (2.5 μL, 100 μM) was then separately added to both microsomal mixes (i.e., one mix with NADPH and one mix without NADPH), incubated at 37° C. and sampled at predetermined time points. Analysis was performed using a AB SCIEX QTRAP 4500 LC-MS/MS, a Kinetex C18, 50*4.6 mm, 5 μm column and eluting with 10 mM Ammonium Acetate/Methanol.
# Table 3 summarizes the % of compound remaining after 45 minutes of incubation with human microsomes either in the presence of co-factors UDPGA and NADPH or UDPGA only.
# [2] = Metabolic identification in mouse hepatocytes; format: in vitro ADME; conditions: up to 120 min
# Protocol: A 10 mM stock of test compound from Example 2 (sodium 2-(3-((5-cyclopropyl-3-(2-(trifluoromethoxy)phenyl)isoxazol-4-yl)methoxy)-8-azabicyclo[3.2.1]octan-8-yl)-4-fluorobenzo[d]thiazole-6-sulfinate) was prepared in DMSO. 20 μM of final working stock was then prepared by diluting 4 μL of 10 mM stock in 1996 μL of Krebs-Hensleit buffer. 200 μL of hepatocyte cell suspension (2×10^6 cells/mL) was added to TPP 48 well plate and preincubated for 30 min @ 37° C. in incubator. 200 μL of 20 μM working stock of test compound was added to the cell suspension and incubated in an incubator on vibramax at a shaking speed of 500 rpm. For the 0 min sample, 25 μL of hepatocyte suspension was precipitated with 200 μL of acetonitrile and 25 μL of 20 μM test compound was added. The reaction was stopped at 15, 30, 60, 90, 120 min by precipitating 50 μL of incubation mixture with 200 μL of acetonitrile. The samples were vortexed for 5 min at 1200 rpm and centrifuged at 4000 rpm for 10 min. The supernatant was separated, diluted 2 fold with water and analysed using a HPLC (Shimadzu SIL HTS) and mass spectrometer (5500 Qtrap). Acetonitrile and 0.1% formic acid in Milli-q-water were used as the mobile phase, using a column of either Waters Xbridge C18, 250×3.0 mm, 5.0μ particle size or Phenomnex kinetex 5μ EVO C18 100 A, 50×4.6 mm 5.0μ particle size. […]
# [3] = Metabolic identification in human hepatocytes; format: in vitro ADME
# Protocol: A 10 mM stock of test compound from Example 2 (sodium 2-(3-((5-cyclopropyl-3-(2-(trifluoromethoxy)phenyl)isoxazol-4-yl)methoxy)-8-azabicyclo[3.2.1]octan-8-yl)-4-fluorobenzo[d]thiazole-6-sulfinate) was prepared in DMSO. 20 μM of final working stock was then prepared by diluting 4 μL of 10 mM stock in 1996 μL of Krebs-Hensleit buffer. 200 μL of hepatocyte cell suspension (2×10^6 cells/mL) was added to TPP 48 well plate and preincubated for 30 min @ 37° C. in incubator. 200 μL of 20 μM working stock of test compound was added to the cell suspension and incubated in an incubator on vibramax at a shaking speed of 500 rpm. For the 0 min sample, 25 μL of hepatocyte suspension was precipitated with 200 μL of acetonitrile and 25 μL of 20 μM test compound was added. The reaction was stopped at 15, 30, 60, 90, 120 min by precipitating 50 μL of incubation mixture with 200 μL of acetonitrile. The samples were vortexed for 5 min at 1200 rpm and centrifuged at 4000 rpm for 10 min. The supernatant was separated, diluted 2 fold with water and analysed using a HPLC (Shimadzu SIL HTS) and mass spectrometer (5500 Qtrap). Acetonitrile and 0.1% formic acid in Milli-q-water were used as the mobile phase, using a column of either Waters Xbridge C18, 250×3.0 mm, 5.0μ particle size or Phenomnex kinetex 5μ EVO C18 100 A, 50×4.6 mm 5.0μ particle size.
# Table 4 summarizes the major metabolites observed when the compound of Example 2 of the invention was incubated in human, dog or mouse hepatocytes.
# STAM model NASH mice = experiment: In-vivo efficacy in STAM model of non-alcoholic steatohepatitis; conditions: oral once daily for three weeks, 0.3, 1 or 3 mg/kg
# Protocol: NASH was induced in male mice by a single subcutaneous injection of 200 μg streptozotocin (STZ, Sigma-Aldrich, USA) solution 2 days after birth and feeding with high fat diet (HFD, 57 kcal % fat, Cat #HFD32, CLEA Japan, Inc., Japan) after 4 weeks of age. NASH model mice were randomized into groups of 8 mice at 6 weeks of age based on their body weight the day before the start of treatment. The compound of Example 2 was then administered orally in a volume of 10 ml/kg at dose levels 0.3 mg/kg, 1 mg/kg and 3 mg/kg once daily for 3 weeks. […] NAFLD Activity score (NAS) was calculated according to the criteria of Kleiner (Kleiner D E. et al., Hepatology, 2005; 41:1313). […] For quantitative analysis of fibrosis area, bright field images of Sirius red-stained sections were captured around the central vein using a digital camera (DFC295; Leica, Germany) at 200-fold magnification, and the positive areas in 5 fields/section were measured using ImageJ software (National Institute of Health, USA). […] The score can be used to quantify changes in NAFLD during disease progression and on administration of potential therapeutics. In order to quantify the degree of fibrosis Sirius red stained liver sections were used to visualise and study collagen distribution.
smiles,measurement,setting,value
"O=S([O-])c1cc(F)c2nc(N3[C@@H]4CC[C@H]3C[C@@H](OCc3c(-c5ccccc5OC(F)(F)F)noc3C3CC3)C4)sc2c1.[Na+] [Example 2, Sodium 2-(3-((5-cyclopropyl-3-(2-(trifluoromethoxy)phenyl)isoxazol-4-yl)methoxy)-8-azabicyclo[3.2.1]octan-8-yl)-4-fluorobenzo[d]thiazole-6-sulfinate]",% remaining @ 45 mins of incubation with UDPGA,[1]; co-factor UDPGA only,94%
same,% remaining @ 45 mins of incubation with UDPGA and NADPH,[1]; co-factors UDPGA and NADPH,52%
same,Acyl-Glucuronide,[2],No
same,Observed Major Metabolites,[2],"Hydroxy, Di-hydroxy and Alkenyl-hydroxy"
same,Major metabolite by MS/MS (FIG. 14),[3]; 120 mins,hydroxy compound
same,Acyl-Glucuronide,[3]; up to 120 min,No
same,Observed Major Metabolites,[3]; up to 120 min,"Hydroxy, Alkenyl and Alkenyl-hydroxy"
same,Fibrosis area (Sirius red positive area),STAM model NASH mice,Significant reductions
same,NAFLD Activity score (NAS),STAM model NASH mice,Significant reductions
